{"source": "paper PMC6580635", "about": "“Neuropilin-1 drives tumor-specific uptake of chlorotoxin” (Cell Communication and Signaling : CCS, 2019)", "molecules": {"B1": {"name": "Biotinylated VEGF165 (ligand)", "chain": "APMAEGGGQNHHEVVKFMDVYQRSYCHPIETLVDIFQEYPDEIEYIFKPSCVPLMRCGGCCNDEGLECVPTEESNITMQIMRIKPHQGQHIGEMSFLQHNKCECRPKKDRARQENPCGPCSERRKHLFVQDPQTCKCSCKNTDSRCKARQLELNERTCRCDKPRR", "modifications": "biotin"}}, "key": {"NRP1 [1]": {"target": "T1, NRP1 (Homo sapiens, UniProt O14786)", "T1 construct": "purchased Sino Biological Inc. 10011-H02H", "T1 sequence (O14786 22-644 isoform O14786-2 limits assumed)": "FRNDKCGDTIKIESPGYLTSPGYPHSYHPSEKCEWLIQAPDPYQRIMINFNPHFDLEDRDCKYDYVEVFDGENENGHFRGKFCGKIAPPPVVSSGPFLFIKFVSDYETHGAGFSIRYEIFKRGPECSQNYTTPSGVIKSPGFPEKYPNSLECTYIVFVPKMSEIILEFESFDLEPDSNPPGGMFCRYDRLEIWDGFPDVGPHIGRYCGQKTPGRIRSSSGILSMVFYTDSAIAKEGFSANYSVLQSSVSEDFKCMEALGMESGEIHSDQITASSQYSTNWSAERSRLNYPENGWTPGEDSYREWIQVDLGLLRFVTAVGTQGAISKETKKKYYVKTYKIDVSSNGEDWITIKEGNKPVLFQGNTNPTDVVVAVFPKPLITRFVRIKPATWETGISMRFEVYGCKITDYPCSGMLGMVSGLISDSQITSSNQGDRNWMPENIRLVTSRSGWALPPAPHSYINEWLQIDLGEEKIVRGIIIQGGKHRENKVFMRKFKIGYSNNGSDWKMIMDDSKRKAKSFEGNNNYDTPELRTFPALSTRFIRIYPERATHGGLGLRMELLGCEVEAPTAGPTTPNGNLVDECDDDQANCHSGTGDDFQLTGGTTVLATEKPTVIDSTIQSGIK", "experiment": "Bio-layer interferometry (Octet) binding of Cltx and derived peptides to NRP1", "details": "BLI; biotinylated peptides on streptavidin biosensors, NRP1 0 to 1750 nM; mean of 2 to 6 independent experiments; ns = no significant binding", "description": "Octet binding studies required biotinylation of Cltx and derived peptides for loading onto streptavidin biosensors. Trypsin, (Promega Cat# V5280) (~ 40 μg/mL) was added to Cltx biotinylated at K27 or N-terminus (10 mg/mL) and incubated for 24 h at 37 °C, pH 8.5. The resulting peptides were separated by preparative HPLC and peptide fragments were characterized by MALDI. Small linear Cltx-derived peptides were also synthesized by routine methods and were biotinylated at the N-terminus. In some cases, peptides were reduced with TCEP at pH 8 and the cysteine residues were capped using iodoacetamide.\nAssessment of binding between NRP1and Cltx was performed by Bio-Layer Interferometry (BLI) using the Octet Red96 System (ForteBio, Pall). Cltx and derived fragments were captured on streptavidin biosensors (Cat# 18–5020) under approximately equivalent loading conditions; sensors were then quenched with EZ-Link Biocytin and washed in assay buffer (PBS, 1% BSA, 0.05% Tween20)."}, "NRP1 [2]": {"target": "T1, NRP1", "experiment": "BLI competition with biotinylated VEGF165 for binding to NRP1", "details": "NRP1 fixed at 390 nM, Cltx peptide 50 to 800 μmol/L"}, "crayfish": {"tested_on": "crayfish", "experiment": "Crayfish bioassay (neurotoxicity, paralysis)", "format": "in vivo", "details": "20 µg per injection, n=8 crayfish; Kaplan-Meier analysis", "experimental": "The crayfish assay to determine bioactivity of Cltx was performed at ABC Labs (Columbia, MO, now EAG Labs) using an SOP generated by TransMolecular Inc. Cltx peptide (20 μg) in sterile water was injected through the ventral surface of the thorax in the region of the sub-esophageal ganglion of crayfish which were then subjected to physical challenge defined as multiple, continuous, gentle prods in random parts of the body from head to tail. The animal’s response is based on avoidance, ability to right itself, and clasping with chelae in a defensive manner. Time from injection to total incapacitation was recorded; total incapacitation is defined as the time when the tested crayfish is not responsive when physically challenged."}, "Neuropilin-1 (NRP1)": {"target": "T2, Neuropilin-1 (NRP1) (UniProt O14786 22-856)", "T2 construct": "The R&D Systems NRP1 Phe22-Lys644 (Cat# 3870-N1) was only a control in Western blots", "T2 sequence (looked up)": "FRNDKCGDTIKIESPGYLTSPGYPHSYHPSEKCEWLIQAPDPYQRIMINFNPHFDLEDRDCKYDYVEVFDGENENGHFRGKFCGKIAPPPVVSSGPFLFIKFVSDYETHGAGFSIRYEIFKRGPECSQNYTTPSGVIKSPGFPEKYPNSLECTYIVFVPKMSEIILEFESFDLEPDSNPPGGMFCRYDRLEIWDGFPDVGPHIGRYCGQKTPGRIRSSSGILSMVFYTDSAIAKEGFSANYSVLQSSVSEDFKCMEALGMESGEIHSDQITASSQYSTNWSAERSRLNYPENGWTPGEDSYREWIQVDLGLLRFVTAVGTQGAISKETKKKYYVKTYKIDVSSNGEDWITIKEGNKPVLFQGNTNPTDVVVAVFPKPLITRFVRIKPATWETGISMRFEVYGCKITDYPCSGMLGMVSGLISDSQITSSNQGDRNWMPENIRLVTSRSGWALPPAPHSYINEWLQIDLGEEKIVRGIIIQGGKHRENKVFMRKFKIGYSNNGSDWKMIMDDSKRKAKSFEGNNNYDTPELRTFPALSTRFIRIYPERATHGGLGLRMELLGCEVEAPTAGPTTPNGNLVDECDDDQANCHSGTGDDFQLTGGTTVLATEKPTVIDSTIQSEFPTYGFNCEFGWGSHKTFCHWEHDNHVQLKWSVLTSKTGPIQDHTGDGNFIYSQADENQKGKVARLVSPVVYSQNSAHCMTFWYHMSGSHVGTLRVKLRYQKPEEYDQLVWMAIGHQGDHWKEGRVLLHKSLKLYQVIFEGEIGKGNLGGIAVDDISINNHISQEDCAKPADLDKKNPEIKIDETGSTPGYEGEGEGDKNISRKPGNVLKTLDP", "experiment": "BLI; affinity of NRP1 for VEGF given beside the peptides of Table 1; set-up for VEGF not told separately", "details": "both partners purified"}}, "note": "Peptide text beside a SMILES is read from it. * marks the point of attachment. Biotin = O=C1N[C@H]2[C@H](CS[C@H]2CCCCC(=O)*)N1; Cam = NC(=O)C*", "data": [{"molecule": "CC(C)C[C@H](NC(=O)[C@H](CSCC(N)=O)NC(=O)[C@H](CCC(N)=O)NC(=O)[C@@H]1CCCN1C(=O)CNC(=O)[C@H](Cc1ccc(O)cc1)NC(=O)CCCC[C@@H]1SC[C@@H]2NC(=O)N[C@@H]21)C(=O)N[C@@H](CSCC(N)=O)C(=O)N[C@@H](CCCNC(=N)N)C(=O)O", "note": "[C00008] (Biotin-YGPQC(Cam)LC(Cam)R-OH)", "values": [{"measurement": "Kd", "setting": "NRP1 [1]", "value": 297, "unit": "nM"}]}, {"molecule": "CSCC[C@H](NC(=O)CCCC[C@@H]1SC[C@@H]2NC(=O)N[C@@H]21)C(=O)N[C@H]1CSSC[C@@H](C(=O)N[C@@H](Cc2ccccc2)C(=O)N[C@H](C(=O)N[C@H](C(=O)N[C@@H](CC(=O)O)C(=O)N[C@@H](Cc2c[nH]cn2)C(=O)N[C@@H](CCC(N)=O)C(=O)N[C@@H](CCSC)C(=O)N[C@@H](C)C(=O)N[C@@H](CCCNC(=N)N)C(=O)O)[C@@H](C)O)[C@@H](C)O)NC(=O)[C@@H]2CCCN2C(=O)[C@H](CCSC)NC1=O", "note": "[C00003]", "values": [{"measurement": "Kd", "setting": "NRP1 [1]", "value": 167, "unit": "nM"}]}, {"molecule": "Chlorotoxin [Cltx-CONH2]", "values": [{"measurement": "Competition with biotinylated VEGF for binding to NRP1", "setting": "NRP1 [2]", "value": "not"}, {"measurement": "Median time to paralysis (total incapacitation)", "setting": "crayfish", "value": 25, "unit": "s"}]}, {"molecule": "CC(C)C[C@H](NC(=O)[C@H](CSCC(N)=O)NC(=O)CCCC[C@@H]1SC[C@@H]2NC(=O)N[C@@H]21)C(=O)N[C@@H](CSCC(N)=O)C(=O)N[C@@H](CCCNC(=N)N)C(=O)O", "note": "[C00011] (Biotin-C(Cam)LC(Cam)R-OH)", "values": [{"measurement": "Kd", "setting": "NRP1 [1]", "value": 335, "unit": "nM"}]}, {"molecule": "B1", "values": [{"measurement": "Kd", "setting": "Neuropilin-1 (NRP1)", "value": "~50", "unit": "nM"}]}]}
